This is an account of results in patent publication US20260092061A1, “COMPOUNDS FOR TARGETED PROTEIN DEGRADATION” (Amphista Therapeutics Limited, priority 2022, published 2026).

Like-named read-outs stand apart in the source and are kept apart here. Bounds are passed on as bounds.

Common to all, as to format: cell-based
For assay [1], the target named is T1, BRD9 (Homo sapiens, UniProt Q9H8M2).
T1 sequence (Q9H8M2 1-597): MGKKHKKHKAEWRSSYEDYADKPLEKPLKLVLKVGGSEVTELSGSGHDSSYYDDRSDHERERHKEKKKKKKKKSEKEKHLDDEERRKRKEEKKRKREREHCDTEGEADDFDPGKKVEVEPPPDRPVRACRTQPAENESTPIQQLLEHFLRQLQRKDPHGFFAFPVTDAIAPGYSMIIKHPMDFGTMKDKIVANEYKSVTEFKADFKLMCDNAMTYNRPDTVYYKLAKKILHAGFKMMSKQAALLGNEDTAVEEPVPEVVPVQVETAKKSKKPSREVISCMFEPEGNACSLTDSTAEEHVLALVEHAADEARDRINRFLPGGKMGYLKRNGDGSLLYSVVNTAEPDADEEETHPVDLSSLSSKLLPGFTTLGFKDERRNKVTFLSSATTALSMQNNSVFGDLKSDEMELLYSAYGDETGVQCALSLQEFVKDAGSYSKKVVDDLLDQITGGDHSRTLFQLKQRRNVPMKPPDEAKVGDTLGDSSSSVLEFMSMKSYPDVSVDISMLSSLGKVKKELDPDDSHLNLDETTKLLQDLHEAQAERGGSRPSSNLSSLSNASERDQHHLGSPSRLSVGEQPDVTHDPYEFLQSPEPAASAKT
In words: BRD9 degradation, HiBiT-BRD9 KI HEK293 (LgBiT) cells, NanoGlo Lytic Endpoint assay (Assay Protocol 1). Particulars: for Dmax at 1 µM: HEK293; for DC50: 6 h of treatment, read-out: Assay 1 DC50. The method in brief:
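HiBiT-tagged BRD9 knock-in HEK293 (LgBiT) cells exposed to compounds for 6 h at 37 °C, 5% CO2. Residual BRD9 measured by HiBiT lytic luminescence. % BRD9 remaining normalised to DMSO-treated cells (high) and no-cell wells (low).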
(HiBiT is a short tag that completes a luciferase, so light tracks the accessible tagged protein.)

Assay [2] concerns the target T1, BRD9. The description is as above. Particulars: Table 3; assay 1; 5 h of treatment.
The target in assay [3] is T2, BRD4 (Homo sapiens, UniProt O60885).
T2 construct: HiBiT-BRD4 HEK293 CRISPR CPM (Promega CS302312); host or cells: HEK293, CRISPR-edited (HiBiT at the BRD4 locus)
Briefly: BRD4 degradation, HiBiT-BRD4 HEK293 CRISPR CPM cells, NanoGlo Lytic Endpoint assay (Assay Protocol 1). Particulars: HEK293; Table 3; assay 1; 1 μM compound at 5 h of treatment.

Where [4] appears, read: Table 2, BRD9 degradation, Assay Protocol 1, 1 μM compound at 6 h of treatment, read-out: Assay 1 Dmax.
Setting [5] is: Table 3, assay 1, 1 μM compound at 5 h of treatment, read-out: BRD9 Dmax (%).
Where [6] appears, read: Table 2, BRD9 degradation, Assay Protocol 1.

For the compound `COc1cc(-c2cn(C)c(=O)c(C)c2C)cc(OC)c1CN1CCC(Oc2cccc3c2CCN(C(=O)/C(C#N)=C/c2cccc(Br)n2)C3C)CC1` (mixture of isomers) [Compound A68, (E/Z)-3-(6-bromopyridin-2-yl)-2-(5-((1-(2,6-dimethoxy-4-(1,4,5-trimethyl-6-oxo-1,6-dihydropyridin-3-yl)benzyl)piperidin-4-yl)oxy)-1-methyl-1,2,3,4-tetrahydroisoquinoline-2-carbonyl)acrylonitrile], the Dmax at 1 µM in assay [1] (setting [4]) and in assay [1] (setting [5]) was more than 75% in each case. Besides, the DC50 in assay [1] (setting [6]) and in assay [2] was 1.25 to 10 nM each time. This compound had a Dmax in assay [3] of less than 25%.

On to `COc1cc(-c2cn(C)c(=O)c(C)c2C)cc(OC)c1CN1CCN(Cc2cccc3c2CCN(C(=O)/C(C#N)=C/c2cccc(Br)n2)C3C)CC1` (mixture of isomers) [Compound A16, (E/Z)-3-(6-bromopyridin-2-yl)-2-(5-((4-(2,6-dimethoxy-4-(1,4,5-trimethyl-6-oxo-1,6-dihydropyridin-3-yl)benzyl)piperazin-1-yl)methyl)-1-methyl-1,2,3,4-tetrahydroisoquinoline-2-carbonyl) acrylonitrile], for which the Dmax at 1 µM in assay [1] (setting [4]) and in assay [1] (setting [5]) was 70 to 75% each time. Besides, the DC50 in assay [1] (setting [6]) and in assay [2] was 1.25 to 10 nM in each case. Moreover, the Dmax in assay [3] was less than 25%.

With `COc1cc(-c2cn(C)c(=O)c(C)c2C)cc(OC)c1CN1CCN(Cc2cccc3c2CCN(C(=O)/C(C#N)=C/c2nccs2)C3C)CC1` (mixture of isomers) [Compound A4, (E/Z)-2-(5-((4-(2,6-dimethoxy-4-(1,4,5-trimethyl-6-oxo-1,6-dihydropyridin-3-yl)benzyl)piperazin-1-yl)methyl)-1-methyl-1,2,3,4-tetrahydroisoquinoline-2-carbonyl)-3-(thiazol-2-yl)acrylonitrile], the Dmax at 1 µM in assay [1] (setting [4]) and in assay [1] (setting [5]) was 70 to 75% each time. Further, the DC50 in assay [1] (setting [6]) and in assay [2] was less than 1.25 nM in each case. This compound returned a Dmax in assay [3] of less than 25%.

As a reminder, the Dmax is the largest share of the target that was removed. What is called DC50 is the concentration at which degradation of the target reaches its halfway point.
